# Key:
# WT E. coli = assay: Whole-cell probe labeling coupled to flow cytometry/FACS, E. coli only; format: cell-based; details: 50 μM
# [1] = test system: Lactobacillus plantarum, which lacks a β-glucuronidase; assay: Whole-cell probe labeling coupled to flow cytometry/FACS, L. plantarum only; format: cell-based; details: 50 μM
# [2] = test system: mix of WT E. coli and L. plantarum; assay: Whole-cell probe labeling coupled to flow cytometry/FACS, mix of E. coli and L. plantarum; format: cell-based, Lactobacillus plantarum
# β-glucuronidase (uidA) [3] = biological target: β-glucuronidase (uidA) (Escherichia coli, UniProt P05804); format: cell-based, E. coli
# Chain of β-glucuronidase (uidA) (Escherichia coli, UniProt P05804) (P05804 whole entry): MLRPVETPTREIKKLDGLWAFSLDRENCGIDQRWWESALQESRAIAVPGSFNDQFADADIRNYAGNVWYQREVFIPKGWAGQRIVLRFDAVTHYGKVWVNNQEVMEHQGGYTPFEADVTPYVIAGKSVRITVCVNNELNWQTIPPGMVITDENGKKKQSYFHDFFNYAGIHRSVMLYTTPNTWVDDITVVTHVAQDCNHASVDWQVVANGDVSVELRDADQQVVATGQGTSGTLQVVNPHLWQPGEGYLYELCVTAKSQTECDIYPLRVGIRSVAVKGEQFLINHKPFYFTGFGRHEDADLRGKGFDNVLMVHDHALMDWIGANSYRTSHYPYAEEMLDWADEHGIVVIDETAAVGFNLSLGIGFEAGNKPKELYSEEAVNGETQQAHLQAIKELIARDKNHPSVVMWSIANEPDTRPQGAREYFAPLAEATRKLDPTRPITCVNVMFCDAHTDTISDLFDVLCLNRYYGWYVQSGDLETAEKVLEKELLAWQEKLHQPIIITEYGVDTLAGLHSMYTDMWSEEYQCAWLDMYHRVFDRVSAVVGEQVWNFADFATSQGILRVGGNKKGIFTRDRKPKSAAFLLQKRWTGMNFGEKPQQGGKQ
# β-glucuronidase (uidA) [4] = format: cell-based, E. coli; details: ΔuidA strain lacking β-glucuronidase
# [5] = test system: β-glucuronidases from Escherichia coli, Streptococcus agalactiae, and Clostridium perfringens; format: biochemical; details: wild-type enzymes; fluorescence SDS-PAGE
# gut microbiota = format: in vivo, mouse
# [6] = test system: glucuronidase activity in the gut microbiome; format: in vivo, mouse; details: in 4 of 5 sets of littermates; vancomycin in water vs water
# Method: Microbial cells from the mouse gut were suspended in PBS with a protease inhibitor (COMPLETE® EDTA-free Protease Inhibitor, ROCHE®) and lysed via bead beating (BULLET BLENDER®). β-glucuronidase assays were conducted as previously described with modifications. Briefly, 4-methylumbelliferyl-β-D-glucuronide (4-MUG; 1 mM) was added to 50 μL lysate (0.9 μg total protein) for a final concentration of 500 μM. At specific time points (0-240 minutes), 10 μL aliquots of each reaction were added to 90 μL of 0.1 M […] (pH=10) and stored in the dark. Fluorescence was measured using a plate reader (MOLECULAR BIOSCIENCES®), and the amount of hydrolyzed substrate was calculated relative to a standard curve. The rate (mM/s) was determined via linear regression (GRAPHPAD® PRISM®), and activity was calculated as rate per μg protein. Values from three independent replicates were averaged, and activity was compared across biological replicates (n=5) using a ratio paired t-test.
# Pairs of littermates were exposed to water with or without vancomycin, an antibiotic known to target Firmicutes in the gut microbiota (FIG. 12). As Firmicutes made up most the probe-positive taxa in the non-treated mice (FIG. 13), vancomycin treatment may shift the GlcA-ABP+ population composition. […] Accordingly, the intensity of GlcA-ABP+ labeling decreased as well (FIG. 14B).
# [7] = vancomycin-treated vs untreated littermates
smiles,measurement,setting,value
"C#CCCCC(=O)Nc1ccc(OC2OC(C(=O)O)C(O)C(O)C2O)c(C(F)F)c1 (stereo not drawn) [GlcA-ABP, 6-(2-(difluoromethyl)-4-(hex-5-ynamido)phenoxy)-3,4,5-trihydroxytetrahydro-2H-pyran-2-carboxylic acid]","cell labeling, flow cytometry",WT E. coli,labeling was observed
same,"cell labeling, flow cytometry",[1],none
same,"cell labeling, flow cytometry","[2]; mixture of E. coli and L. plantarum, 50 μM",an intermediate amount
same,labeling in ΔuidA complemented with uidA,β-glucuronidase (uidA) [3]; SDS-PAGE and flow cytometry,restoration of labeling
same,labeling of β-glucuronidase in wild type (WT) E. coli,"β-glucuronidase (uidA) [3]; WT E. coli, SDS-PAGE",Dose-dependent labeling
same,labeling in ΔuidA E. coli,β-glucuronidase (uidA) [4],no labeling
same,GlcA-ABP labeling intensity of purified β-glucuronidases,[5],corresponded with the catalytic efficiency of these enzymes
"C#CCCCCNC(=O)CI [IAA, iodoacetamide alkyne, reference compound]","cell labeling by positive control probe, flow cytometry","[2]; E. coli only, L. plantarum only, or mix, 10 μM",all cells were labeled
"CN[C@H](CC(C)C)C(=O)N[C@H]1C(=O)N[C@@H](CC(N)=O)C(=O)N[C@H]2C(=O)N[C@H]3C(=O)N[C@H](C(=O)N[C@H](C(=O)O)c4cc(O)cc(O)c4-c4cc3ccc4O)[C@H](O)c3ccc(c(Cl)c3)Oc3cc2cc(c3O[C@@H]2O[C@H](CO)[C@@H](O)[C@H](O)[C@H]2O[C@H]2C[C@](C)(N)[C@H](O)[C@H](C)O2)Oc2ccc(cc2Cl)[C@H]1O [Vancomycin, vancomycin]",relative abundance of Firmicutes,gut microbiota; [7],dramatically decreased
same,"relative abundance of Proteobacteria, Verrucomicrobia, and Bacteroidetes",gut microbiota; [7],corresponding increase
same,intensity of GlcA-ABP+ labeling after treatment,gut microbiota; vancomycin-treated vs untreated mice,decreased
same,glucuronidase activity in gut microbiome after treatment,[6],"reduced, but did not eliminate"

# — patent publication US20190086410A1, “FUNCTION-BASED PROBES FOR ENVIRONMENTAL MICROBIOME ANALYSIS AND METHODS OF MAKING AND USING THE SAME” (Battelle Memorial Institute, priority 2017, published 2019)
